Results as given in US6410752B1, “Tocopherol derivatives and method for preparation thereof” (Pacific Corporation, priority 2000, dated 2002).
Read-outs that look alike come from different tables or passages of the source.

Assays:
[1] = test system: Fibroblast cells of infant; settings: 24 hours, none-treated sample = 100
Procedure: The effect on promoting biosynthesis of collagen was examined in vitro for assaying the effect of the present invention on skin, comparing to 3-amino propane phosphate.
Fibroblast cells of infant were inoculated on 24-wells(10^5 cells/well). They were washed with PBS once. And then, preparation example 1 and 3-aminopropane phosphate as a control were treated by the concentration shown Table 3, and were incubated at CO2 incubator for 24 hours. Each supernatant was collected, and the variation of procollagen was measured by using procollangen type (I) ELISA kit. The value of biosynthesis activity was calculated by comparing to 100, the value of none-treated sample.

[2] = Measurement of antioxidant activity using Lard oil; settings: 60° C. dark room, when weight no longer changed, NMR spectroscopy
Procedure: 2.0 g of Lard oil was poured on petri-dish, and here 40 mmol of each of tocopherol, preparation example 1 or tocopherol acetate was added. Then, the mixture solution was maintained in a dark room of 60° C. The oxidation ratio of Lard oil was determined by daily measurement of the change in weight. The less is the changeability in weight of Lard oil, the stronger is the antioxidant ability, because the increase in weight of Lard oil is related to the oxidation of Lard oil.
In the meantime, when the change in weight of Lard oil was not observed any longer, the oxidation ratio was determined by using NMR spectroscopy.

[3] = Measurement of antioxidant activity using linoleic acid; settings: 60° C. dark room, when weight no longer changed, NMR spectroscopy
Procedure: 2.0 g of pure linoleic acid was poured on a petri-dish, and here 40 mmol of each of tocopherol, preparation example 1 or tocopherol acetate was added. Then, the mixture solution was maintained in a dark room of 60° C. The oxidation ratio of linoleic oil was measured by daily measurement of the change in weight. The less is the changeability in weight of linoleic acid, the stronger is the antioxidant ability, because the increase in weight of linoleic acid is related to the oxidation of linoleic oil.
In the meantime, when the change in weight of linoleic acid was not observed any longer, the oxidation ratio was determined by using NMR spectroscopy.

[4] = 60° C., in cetylethyl-hexanoate; for Residual ration(%): HPLC
Procedure: Each 3 g of preparation example 1 product and tocopherol was dissolved with 100 ml of cetylethyl-hexanoate. […] Then, residual ratio of each compound was analyzed by using HPLC. Here, phenyl column, eluate solution of 70% aqueous THF solution including 10 mM SDS and 50 mM H3PO4, flow rate of 1 ml/min and detection of 286 nm was used as HPLC analysis condition of preparation example 1. And ODS column, MeOH as eluate solution, flow rate of 1 ml/min and detection of 290 nm was used as HPLC analysis condition of tocopherol for control.

[5] = 60° C., in cetylethyl-hexanoate, six months, unaided eye
mice [6] = settings: oral, 1 ml/kg of 10% solution in squalene
Procedure: (§1) If the tocopherol derivatives should be used as cosmetic ingredient, their safety in the living body is very important. […] The product of Preparation Example 1 was dissolved in squalene to produce 10% of solution sample, and the sample was employed in safety experiments.
Acute oral toxicity test in mice: 1 ml/kg of the sample was administrated to total ten (10) mice (male and female were separately five (5) mice).

mice [7] = settings: percutaneous once, 0.2 ml/kg of 10% solution in squalene, two weeks of observation
Procedure: as §1
(§2) 1-2. Acute dermal toxicity test in mice and rabbits: 0.2 ml/kg of the sample was administrated percutaneously once to a total of ten (10) mice (five male and five female).

rabbits [8] = settings: same experiment as in mice (percutaneous, 10% solution in squalene)
Procedure: as §1, §2

rabbits [9] = settings: 0.1 ml of 10% solution in squalene on depilated back site
Procedure: as §1
1-3. Primary skin irritation test: 0.1 ml of test sample was applied to back site (2.5 cm×2.5 cm) of each of 12 rabbits depilated 24 hours before.

rabbits [10] = settings: 0.1 ml of sample diluted with saline to 2%
Procedure: as §1
1-4. Eye irritation test: The sample was diluted with saline to produce 2% of test sample, and 0.1 ml of the diluted solution was applied to the eye of each of nine (9) rabbits.

Guinea pigs = settings: 10% solution in squalene
Procedure: as §1
1-5. Skin sensitization test: Test was carried out for six (6) (three males and three females) Guinea pigs according to Maggnusson and Kligman's procedure.

healthy women = settings: human patch test, healthy women aged 20~28
Procedure: as §1
1-6. Human patch test: Human patch test was carried out for thirty (30) healthy women aged 20˜28 according to CTFA Guideline(The Cosmetic Toiletry and Fragrance Association, INC., Washington, D.C. 20036, 1991).

subjects = settings: repeat insult human patch test
Procedure: as §1
1-7. Repeat Insult Human Patch Test: Human patch test was carried out for subjects according to CTFA Guideline.

phosphodiesterase = settings: 37° C., 24 hours, 1% aqueous solution of 1:9 mixture with Tween 20, HPLC
Procedure: The phosphodiesterase was used as biological enzyme, and 1% aqueous solution of 1:9 mixture of preparation example 1 and Tween 20 was prepared to use as an assay sample. After the stirring mixture of the above enzyme, assay sample and medium solution at a temperature of 37° C. for 24 hours, analysis for the hydrolysis ratio of tocopherol derivatives was carried out by using HPLC(MeOH:THF=9:1, R.T.=13.695 min, tocopherol).

Row | Molecule | oxidation ratio of Lard oil [2] | oxidation ratio of linoleic acid [3] | Residual ration(%) ([4]; Month 1) | Residual ration(%) ([4]; Month 2) | Residual ration(%) ([4]; Month 3) | Residual ration(%) ([4]; Month 4) | Residual ration(%) ([4]; Month 5) | Residual ration(%) ([4]; Month 6) | Residual ration(%) ([4]; Month head blank) | coloration degree [5] | also measured
1 | NCCCOP(=O)(O)O [3-aminopropane phosphate, reference compound] |  |  |  |  |  |  |  |  |  |  | Biosynthesis activity (%) ([1]; concentration 10^−4 %): 146%
2 | tocopherol [reference compound] | about 90% | about 83% | 100% | 97% | 92% | 88% | 82% | 76% | 100% | increase in coloration at four (4) months or more | 
3 | Cc1c(C)c2c(c(C)c1OP(=O)(O)OCCCN)CCC(C)(CCCC(C)CCCC(C)CCCC(C)C)O2 (stereo not drawn) [Preparation Example 1, 3-aminopropyl-α-tocopherol phosphate] | about 5% | about 3% | 100% | 100% | 100% | 100% | 100% | 100% | 100% | did not change in color | death of mice (mice [6]): no death of mice was observed; difference in the body weight after administration (mice [6]): insignificant; abnormal symptoms or changes in body weight (mice [7]): no mice administered with the sample exhibited abnormal symptoms or changes in body weight; abnormal symptom and change of body weight (rabbits [8]): No abnormal symptom and change of body weight were observed; skin irritation (rabbits [9]): no skin irritation was observed; eye irritation (rabbits [10]): no eye irritation on cornea, iris and conjunctiva was observed; skin abnormality (sensitization) (Guinea pigs): no skin abnormality such as erythema, edema or freckles was observed; primary irritation response (healthy women): primary irritation response was not observed; repeat irritation / sensitive irritation (subjects): no repeat irritation or no sensitive irritation was observed; Biosynthesis activity (%) ([1]; concentration 10^−6 %): 141%; stability by quantitative analysis (NMR Spectroscopy), compared with tocopherol [4]: more stable; hydrolysis ratio (phosphodiesterase): 40%
4 | CC(=O)Oc1c(C)c(C)c2c(c1C)CCC(C)(CCC[C@H](C)CCC[C@H](C)CCCC(C)C)O2 (some centres unmarked) [tocopherol acetate] | about 90% | about 83% |  |  |  |  |  |  |  |  | 
